In patent publication EP2955191A1, “Compound, composition and method for treating and/or ameoliorating kidney disease” (Trineo Biotechnology Co. Ltd, priority 2014, dated 2015):

How the values were obtained:
Blb/c mice = assay: Lipopolysaccharide (LPS) induced in vivo kidney inflammation (urine protein); conditions: oral 100 mg/Kg; LPS 2.5 mg/Kg/day i.p. for 5 days; urine on fifth and tenth day; FIG 3
Method: Blb/c mice were kept in pathogen-free environment under 12:12 light-dark cycle with food (laboratory rodent diet 5001 purchased from PMI Nutrition International Inc. MO, USA) and water (i.e., distilled water) provided ad libitum, ambient temperature and relative humidity were respectively set at 22±3 °C and 50±20%. All procedures involving animal studies of the present disclosure comply with the "Guideline for the Care and Use of Laboratory Animals" issued by The Chinese-Taipei Society of Laboratory Animal Sciences.
In this example, to evaluate the therapeutic or prophylactic function of the compositon of example 1.2, animals were first injected intraperitoneally with lipopolysaccharide (LPS) to induce in vivo kidney inflammation before being subect to the treatment of the compositon of example 1.2.
Blb/c mice (6 weeks old) were randomly assigned to two groups, and injected intraperitoneally with lipopolysaccharide (LPS, 2.5 mg/Kg/day) for 5 consecutive days so as to induce kidney inflammation. […] Unine sampls were respectively collected on the fifth and the tenth day after the experiment started, and analyzed for the level of urine protein therein. […]

MDCK cells = assay: Cisplatin induced in vitro kidney cell apoptosis (mitochondria membrane potential, DiOC6 staining); assay type: cell-based, canine; conditions: given after 50 µM cisplatin for 4 hrs, FIG 1A
Method: Madin-Darby canine kidney (MDCK) cells (1.5 x 10^5 cells/mL) were cultured and maintained in Dulbecco's modified Eagle medium (DMEM) supplemented with 10% fetal bovine serum (FBS), 100 units/mL penicillin, […] streptomycin, 2mM L-glutamine, non-essential amino acids and sodium pyruvate, and maintained in 5% CO2 at 37 °C until reached 80% confluence, then were subject to cell passages.
MDCK cells were cultured in according to procedures described in the "Materials and Methods" section. To start the experiment, MDCK cells were first incubated with 50 µM cisplatin for 4 hrs, then various concentrations of the compound of formula (I) (50µg/mL or 100 µg/mL) or the YKII-10 composition of example 1.2 (25 to 100 µg/mL) were given to cisplatin-treated cells and further incubated for another 24 hrs. Mitochondria membrane potentials were then measured by staining the live cells with fluorescent dyes (e.g., 50 nM DiOC6), in which 50 nM DiOC6 were added to cells and incubated at 37 °C for 30 min. The cells were then washed twice with phosphate buffer solution before subjecting to microscopy analysis using the inverted fluorescent microscope. […] Results are illustrated in FIGs 1A and 1B.

For C[C@H](CCC(=O)O)[C@H]1C[C@H](O)[C@@]2(C)C3=C(C(=O)C[C@]12C)[C@@]1(C)CCC(=O)C(C)(C)[C@@H]1C[C@@H]3O [compound of formula (I)], the urine protein level (Blb/c mice) was “effective in reducing”, the “reversing cisplatin-induced apoptosis of MDCK cell” value (MDCK cells; 50µg/mL or 100 µg/mL for 24 hrs) was “capable of reversing” and the “recovery on the membrane potential” value (MDCK cells; 100 µg/mL for 24 hrs, MDCK cells) was “about 80%”.
